From patent US20040213755A1, “Compositions and methods for reducing odor” (priority 2000, published 2004)

Columns and labels:
[1] = GC headspace analysis of odor emitting compound; details: 500 μL of 0.82% solution in water; % of control; 0% = complete removal
Procedure: (§1) The first odor reducing composition of the invention was 89% L-aspartic acid, 1% ZnO, and 10% Smellrite® zeolite (Invention #1). The second odor reducing composition of the invention was 88% L-aspartic acid, 2% ZnO, and 10% Smellrite® zeolite (Invention #2). The odor emitting compounds were tested neat, and triethylamine (0.1%), dimethylsulfide (0.1%), and isovaleric acid (0.82%) were also tested as solutions in water.
(§2) In the tests using the water solutions of the odor emitting compounds, 500 μL of the solutions were used for all samples.
(§3) Samples were prepared using 20 mL serum bottles with septum caps, and gas tight syringes were used to sample the headspace in the serum bottles. The sample was weighed into the serum bottle, the odor emitting compounds were added, and the sample bottles capped. The sample and the odor emitting compound in the serum bottle was mixed in each case. The serum bottle was then allowed to stand for 30 minutes and a 100 μL sample was taken from headspace of the serum bottle using a gas tight syringe and then injected into a gas chromatograph (GC) for analysis.
(§4) The GC analysis was performed using a H—P 5890-11 GC with a FID detector and a Split/Splitless injector, and a H—P 3396 integrator. The column used was a capillary H—P Ultra-2 (50 m×0.32 mm×0.52 μm). The GC conditions used were: injector temperature=300° C., detector temperature=330° C., oven temperature program=70° C. initial hold for 4 min., raise temperature 7° C./min. to 235° C., hold at 235° C. for 4 min. with total run length of 31.6 min. The split was turned off at injection and turned on after 30 seconds.
(§5) Complete removal of odor is represented as 0% and the control is 100%.

[2] = GC headspace analysis of odor emitting compound; details: 500 μL of 0.1% solution in water; % of control; 0% = complete removal
Procedure: as §1, §2, §3, §4, §5

[3] = GC headspace analysis of odor emitting compound; details: 500 μL of 0.1% solution in water; % of control; 0% = complete removal; remark: listed apart in the source
Procedure: as §1, §2, §3, §4, §5

| Structure (SMILES) | % Odor, Isovaleric acid (0.82% in water) [1] [%] | % Odor, Dimethylsulfide (0.1% in water) [2] [%] | % Odor, Triethylamine (0.1% in water) [3] [%] |
| --- | --- | --- | --- |
| O=C([O-])O.[Na+] [Baking soda, sodium bicarbonate] | 8.7 | 93.6 | 19. |
| N[C@@H](CC(=O)O)C(=O)O [L-aspartic acid] | 13.9 | 82.2 | 0 |
| [O]=[Zn] [Zinc oxide, zinc oxide] | 0 | 96.4 | 79.3 |
